Assay results as given in US20050065066A1, “Stabilised insulin compositions” (priority 2002, published 2005).
Read-outs that look alike come from different tables or passages of the source.

Columns and labels:
[1] = target: T1, metal site of insulin R6 hexamers (Homo sapiens, UniProt P01308); details: taken from Huang et al., 1997; read-out: K4H3N; cited from earlier work
T1 construct: human insulin comprising additional amino acids, i.e. more than 51 amino acids

[2] = Disappearance rate from the subcutaneous depot following injection in pigs; format: in vivo; details: disappearance assay
Description: Formulations of the present invention were characterized by the disappearance rate from the subcutaneous depot following injection in pigs. Formulations of B28 Asp human insulin containing A14Tyr(^125I) B28 Asp human insulin were followed with an external γ-counter (Ribel et al., The pig as a model for subcutaneous absorption in man. In: Serrano-Ritos & Lefebre (Eds.): Diabetes (1985) proceedings ot the 12th congress of the international diabetes federation, Madrid, Spain, 1985 (Excerpta Medica, Amsterdam (1986) 891-896. Formulations of Insulin Aspart (0.6 mM, U100) containing 0.3 mM Zn^2+, 30 mM phenol, 2 mM phosphate buffer, and 1.6% glycerol, pH 7.4, were compared with the corresponding formulations containing 0.3 mM of the ligands shown below: where T50% is the time when 50% ot the A14Tyr(^125I) B28 Asp insulin has disappeared from the site of injection and Kd is the affinity of the ligand as measured by the TZD-assay described in “Analytical methods” below.

[3] = target: T1, metal site of insulin R6 hexamers; assay: TZD-assay: fluorescence based displacement assay; format: binding; details: affinity towards the zinc site, TZD-assay; read-out: Kd(app)
Description: The binding affinity of ligands to the metal site of insulin R6 hexamers are measured in a fluorescense based displacement assay. The fluorescence of 5-(4-dimethylaminobenzylidene)thiazolidine-2,4-dione (TZD) which is a ligand for the metal site of insulin R6 is quenched upon displacement from the metal site to the solution. Titration of a ligand to a stock solution of insulin R6 hexamers with this compound mounted in the metal site allows the binding affinity of these ligands to be determined measuring the fluorescence at 455 nm upon excitation at 410 nm.
Stock solution: 0.02 mM human insulin, 0.007 mM Zn-acetate, 40 mM phenol, 0.01 mM TZD in 50 mM tris buffer adjusted to pH=8.0 with NaOH/ClO4^−.
The ligand is dissolved in DMSO to a concentration of 5 mM and added in aliquots to the stock solution to final concentrations of 0-250 µM.
Fluorescence measurements were carried out on a Perkin Elmer Spectrofluorometer LS50B. T main absorption band was excited at 410 nm and emission was detected at 455 nm. The resolution was 10 nm and 2.5 nm for excitation and emission, respectively.
This equation is fitted to the datapoints ΔF(455 nm))=ΔFmax* [ligand]free/(KD(app)*(1+[TZD]/KTZD)+[ligand]free)) KD(app) is the apparent dissociation constant and Fmax is the fluorescence at maximal ligand concentration. The value of KTZD is measured separately to 230 nM
Two different fitting-procedures can be used. One in which both parameters, KD(app) and Fmax, are adjusted to best fit the data and a second in which the value of Fmax is fixed (Fmax=1) and only KD(app) is adjusted. The given data are from the second fitting procedure. The Solver module of Microsoft Excel can be used to generate the fits from the data points.

[4] = Chemical stability of insulin formulations by RPC (reverse phase chromatography); format: physicochemical; details: formulated human insulin, 3 Zn2+ per hexamer
Description: (§1) The chemical stability of insulin formulations of the invention was characterised by HPLC (RPC, reverse phase chromatography and SEC, size exclusion chromatography). As reference, insulin formulated without ligands of the invention but with 0.3% DMSO was also investigated and shown below: [drawing]
FIG. 10. Reverse phase chromatography of formulated human insulin with 3 Zn^2+ per hexamer, 30 mM phenol, 150 mM mannitol, 3 mM phosphoric acid, sodium hydroxide to pH 7.4 and 0.3% DMSO corresponding to 3 ligands per hexamer at start (upper panel) and after storage for 2 weeks at 37° C. (lower panel): Preservatives before 20 min., “hydrophilic derivatives” (desamido-insulins) 20 min to main top insulin, “hydrophobic derivatives 1” main top to 64 min., and “hydrophobic derivatives 2” (insulin dimers) after 64 min.
(§2) Storage in HPLC 1 ml vials at 45° C. (5 d), 37° C. (2 w), 30° C. (6 w), 25° C. (10 w), 15° C. (30 w) gave about the same increase of transformation products correlating to an increase in reactions constants of a factor 3-4 per 10 degree.
RPC (reverse phase chromatography) on Waters SymmetryShield RP8 column, 150×4.6 mm and 3.5 μm, eluted by A: 0.2 M sodium sulfate+0.04 M sodium phosphate pH 7.2+10% acetonitrile and isocratically (i) or a gradient (g) of B: 70% acetonitrile [minutes/% B(i/g): 0/19, 21/24(i)(sudden change), 51/24(i), 81/39(g), 81.1/0(i), 82.3/19(i)] at flow of 0.9 mL/min and 30° C.

[5] = Chemical stability of insulin formulations by SEC (size exclusion chromatography); format: physicochemical; details: formulated human insulin, 3 Zn2+ per hexamer
Description: as §1, §2
SEC (size exclusion chromatography) on Waters insulin HMWP column, 300×7.8 mm, eluted by 15:20:65 of acetic acid: acetonitrile: arginine 1 g/L at flow of 1 mL/min and ambient temperature.

T1 sequence (P01308 25-54 limits assumed): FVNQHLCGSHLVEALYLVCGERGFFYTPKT
T1 sequence (P01308 90-110 limits assumed): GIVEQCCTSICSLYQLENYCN

O=C(O)c1ccc([N+](=O)[O-])c(O)c1 [Example 4H3N, 3-hydroxy-4-nitro benzoic acid]
Kd [1]: 50000 nM

O=C1NC(=O)/C(=C/c2cccc3ccccc23)S1 [Example 68, 5-Naphthalen-1-ylmethylenethiazolidine-2,4-dione]
effect on insulin aspart disappearance from subcutaneous injection site [2]: no effect | Kd [3]: 23 nM

O=C(O)/C=C/c1ccc(/C=C2\SC(=O)NC2=O)cc1 [Example 462]
hphil (hydrophilic derivatives, desamido-insulins) ([4]; 5° predicted): (0.293) % formed/year | hphob1 (hydrophobic derivatives 1) ([4]; 5° predicted): (0.336) % formed/year | hphob2 (hydrophobic derivatives 2, insulin dimers) ([4]; 5° predicted): (0.062) % formed/year | hphil (hydrophilic derivatives, desamido-insulins) ([4]; 15° C.): 1.02 % formed/year | hphob1 (hydrophobic derivatives 1) ([4]; 15° C.): 1.28 % formed/year | hphob2 (hydrophobic derivatives 2, insulin dimers) ([4]; 15° C.): 0.38 % formed/year | hphil (hydrophilic derivatives, desamido-insulins) ([4]; 25° C.): 2.60 % formed/year | hphob1 (hydrophobic derivatives 1) ([4]; 25° C.): 6.14 % formed/year | hphob2 (hydrophobic derivatives 2, insulin dimers) ([4]; 25° C.): 0.78 % formed/year | hphil (hydrophilic derivatives, desamido-insulins) ([4]; 30° C.): 4.07 % formed/year | hphob1 (hydrophobic derivatives 1) ([4]; 30° C.): 4.42 % formed/year | hphob2 (hydrophobic derivatives 2, insulin dimers) ([4]; 30° C.): 1.65 % formed/year | hphil (hydrophilic derivatives, desamido-insulins) ([4]; 37° C.): 9.88 % formed/year | hphob1 (hydrophobic derivatives 1) ([4]; 37° C.): 19.5 % formed/year | hphob2 (hydrophobic derivatives 2, insulin dimers) ([4]; 37° C.): 4.68 % formed/year | hphil (hydrophilic derivatives, desamido-insulins) ([4]; 45° C.): 20.4 % formed/year | hphob1 (hydrophobic derivatives 1) ([4]; 45° C.): 43.8 % formed/year | hphob2 (hydrophobic derivatives 2, insulin dimers) ([4]; 45° C.): 17.5 % formed/year | effect on insulin aspart disappearance from subcutaneous injection site [2]: no effect | dimer ([5]; 5° predicted): (0.048) % formed/year | dimer ([5]; 15° C.): 0.28 % formed/year | dimer ([5]; 25° C.): 1.09 % formed/year | dimer ([5]; 30° C.): 2.17 % formed/year | dimer ([5]; 37° C.): 6.24 % formed/year | dimer ([5]; 45° C.): 21.2 % formed/year | Kd [3]: 58 nM

O=C(O)c1cc2cc(Br)ccc2cc1O [Example 533, 7-bromo-3-hydroxy-2-naphthoic acid]
hphil (hydrophilic derivatives, desamido-insulins) ([4]; 5° predicted): (0.55) % formed/year | hphob1 (hydrophobic derivatives 1) ([4]; 5° predicted): (0.19) % formed/year | hphob2 (hydrophobic derivatives 2, insulin dimers) ([4]; 5° predicted): (0.079) % formed/year | hphil (hydrophilic derivatives, desamido-insulins) ([4]; 15° C.): 1.80 % formed/year | hphob1 (hydrophobic derivatives 1) ([4]; 15° C.): 0.85 % formed/year | hphob2 (hydrophobic derivatives 2, insulin dimers) ([4]; 15° C.): 0.42 % formed/year | hphil (hydrophilic derivatives, desamido-insulins) ([4]; 25° C.): 4.06 % formed/year | hphob1 (hydrophobic derivatives 1) ([4]; 25° C.): 5.67 % formed/year | hphob2 (hydrophobic derivatives 2, insulin dimers) ([4]; 25° C.): 1.46 % formed/year | hphil (hydrophilic derivatives, desamido-insulins) ([4]; 30° C.): 6.76 % formed/year | hphob1 (hydrophobic derivatives 1) ([4]; 30° C.): 6.42 % formed/year | hphob2 (hydrophobic derivatives 2, insulin dimers) ([4]; 30° C.): 2.25 % formed/year | hphil (hydrophilic derivatives, desamido-insulins) ([4]; 37° C.): 12.5 % formed/year | hphob1 (hydrophobic derivatives 1) ([4]; 37° C.): 22.4 % formed/year | hphob2 (hydrophobic derivatives 2, insulin dimers) ([4]; 37° C.): 7.02 % formed/year | hphil (hydrophilic derivatives, desamido-insulins) ([4]; 45° C.): 30.7 % formed/year | hphob1 (hydrophobic derivatives 1) ([4]; 45° C.): 62.1 % formed/year | hphob2 (hydrophobic derivatives 2, insulin dimers) ([4]; 45° C.): 23.4 % formed/year | effect on insulin aspart disappearance from subcutaneous injection site [2]: no effect | dimer ([5]; 5° predicted): (0.087) % formed/year | dimer ([5]; 15° C.): 0.45 % formed/year | dimer ([5]; 25° C.): 1.61 % formed/year | dimer ([5]; 30° C.): 2.86 % formed/year | dimer ([5]; 37° C.): 7.02 % formed/year | dimer ([5]; 45° C.): 26.3 % formed/year | Kd [3]: 383 nM

O=C(O)c1ccc(Cn2c3ccccc3c3cc(-c4nn[nH]n4)ccc32)cc1 [Example 738, 9-(4-Carboxybenzyl)-3-(2H-tetrazol-5-yl)-9H-carbazole]
effect on insulin aspart disappearance from subcutaneous injection site [2]: no effect | Kd [3]: 171 nM

Cc1ccccc1Cn1c2ccccc2c2cc(-c3nn[nH]n3)ccc21 [Example 756, 9-(2-Methylbenzyl)-3-(2H-tetrazol-5-yl)-9H-carbazole]
effect on insulin aspart disappearance from subcutaneous injection site [2]: no effect | Kd [3]: 3 nM
